Legend:
[1] = A2B permeability (Papp) in MDCK-MDR1 cell monolayers; assay type: in vitro ADME; design: dose or concentration left out as unconfirmed; conditions: dog; MDCK-MDR1 monolayer, A-B direction, HBSS pH 7.4, 60 min, 37° C.
Method: (§1) MDCK-MDR1 cells obtained from the NIH (Rockville, MD, USA) are used between passage numbers 6-30. Cells are seeded onto Millipore Multiscreen Transwell plates at 3.4×10^5 cells/cm2. The cells are cultured in DMEM and media is changed on day 3. On day 4 the permeability study is performed. Cell culture and assay incubations are carried out at 37° C. in an atmosphere of 5% CO2 with a relative humidity of 95%. On the day of the assay, the monolayers are prepared by rinsing both apical and basolateral surfaces twice with Hanks Balanced Salt Solution (HBSS) at the desired pH warmed to 37° C. Cells are then incubated with HBSS at the desired pH in both apical and basolateral compartments for 40 min to stabilise physiological parameters.
(§2) The dosing solutions are prepared by diluting test compound with assay buffer to give a final test compound concentration of […] (final DMSO concentration of 1% v/v). The fluorescent integrity marker lucifer yellow is also included in the dosing solution. […]
(§3) Test compound permeability is assessed in duplicate. […]
(§4) Test and control compounds are quantified by LC-MS/MS cassette analysis using a 7-point calibration with appropriate dilution of the samples. […] The starting concentration (CO) is determined from the dosing solution and the experimental recovery calculated from CO and both apical and basolateral compartment concentrations.
(§5) The integrity of the monolayer throughout the experiment is checked by monitoring lucifer yellow permeation using fluorimetric analysis. […] If a lucifer yellow Papp value is above a pre-defined threshold in one well, but the derived Papp result for test compound or marker compound in that well is qualitatively similar to that determined in the remaining replicate well (within the lucifer yellow threshold) then, based upon the scientific judgement of the responsible scientist, the cell monolayer may be considered acceptable. […] If this re-occurs upon repeat in both wells then toxicity or inherent fluorescence of the test compound is assumed. […]

[2] = tested on: MDCK-MDR1 cells; experiment: as above; assay type: in vitro ADME; design: dose or concentration left out as unconfirmed; conditions: MDCK-MDR1 monolayer, A-B direction, HBSS pH 7.4, 60 min, 37° C.
Method: as §1, §2, §3, §4, §5

Row | SMILES | Papp A→B at 60 min [1] [×10⁻⁶ cm/s] | A2B Papp [2]
1 | CCn1cc(C(=O)N2C[C@H]3C[C@@H]2CO3)c(=O)c2cc(OC3Cc4ccccc4C3)cnc21 (stereo in doubt) [Example 17, 1-Ethyl-6-indan-2-yloxy-3-[(1R,4R)-2-oxa-5-azabicyclo[2.2.1]heptane-5-carbonyl]-1,8-naphthyridin-4-one] | 0.87 | –
2 | CCn1cc(C(=O)N2CC3(CCOCC3)C2)c(=O)c2cc(OC3Cc4ccccc4C3)cnc21 [Example 23, 1-Ethyl-6-indan-2-yloxy-3-(7-oxa-2-azaspiro[3.5]nonane-2-carbonyl)-1,8-naphthyridin-4-one] | – | 23 1.24 10^−6 cm/s
3 | CCn1cc(C(=O)N2C3COCC2C3)c(=O)c2cc(OC3Cc4ccccc4C3)cnc21 [Example 16, 1-Ethyl-6-indan-2-yloxy-3-(3-oxa-6-azabicyclo[3.1.1]heptane-6-carbonyl)-1,8-naphthyridin-4-one] | – | 16 2.06 10^−6 cm/s
